Test results reported in US12661357B2, “Use of pyrido[1,2-a]pyrimidone analogue” (GUANGZHOU JOYO PHARMATECH CO., LTD, priority 2021, dated 2026).
Read-outs that look alike come from different tables or passages of the source.

Tests used:
[1] = tested on: human-derived colorectal cancer CO-04-0032 subcutaneous xenograft tumor; assay: In vivo efficacy, CO-04-0032 subcutaneous xenograft tumor model; set-up: species or system BALB/c nude mice; conditions: for Tumor volume (Day 28): mean ± SEM
Description: Experimental purpose: Study the in vivo efficacy of the test drug on human-derived colorectal cancer CO-04-0032 subcutaneous xenograft tumor model in nude mice.
Experimental design: • (1) Animals: BALB/c nude mice, female, 6 weeks old, weighing 16-18 grams. […] CO-04-0032 was a PDX model of human-derived colon cancer independently developed by WuXi AppTec New Drug Development Co., Ltd. See Table 5 below for the experimental grouping and dosing regimen.

[2] = tested on: CAL-27 head and neck cancer cells; assay: CTG cell proliferation IC50, CAL-27; assay type: cell-based; conditions: CAL-27 cells, 72 hours, read-out: Absolute IC50
Description: (§1) • 2). IC50 value: the concentration of inhibitor when 50% inhibitory effect was achieved; • 3). CAL-27 and RPMI 2650: head and neck cancer cell models; HepG2: hepatocellular cancer cells. CAL-27, RPMI 2650 and HepG2 cells were purchased from ATCC, where ATCC® No. was CRL-2095™, CCL-30™, HB-8065™, respectively. • 4). Both KYSE-150 and TE-1 were esophageal cancer cell models. The KYSE-150 cell line was purchased from DSMZ (German Collection of Microorganisms and Cell Cultures), and the DSMZ No. was ACC375; the TE-1 cell line was purchased from National Collection of Authenticated Cell Cultures, catalog number: TCHu89. • 5). RPMI 1640/F12 medium was a 1:1 mixture of RPMI 1640 medium and F12 medium. • 6). The percentages in 10% FBS in Table 1 and Table 2 were volume percentages. (2) Reagents • 1). FBS (fetal bovine serum) (purchased from ExCell, product number: FND500); • 2). MEM medium (purchased from Hyclone, product number: SH30024.01; • 3). DMEM medium (purchased from Gibco, product number: C11995500BT); • 4). MEM NEAA (purchased from Gibco, product number: 11140-050); • 5). RPMI1640 Culture medium (purchased from Gibco, product number: 11875-119); • 6). F12 Culture medium (purchased from Gibco, product number: 11765-054); (3) Test Article and Positive Control Article
(§2) 2. CTG Method was Used to Determine the Cell Proliferation IC50 of the Compound
(§3) • Step 1: Cells in exponential growth phase were harvested, and viable cells were counted with a Vi-Cell XR cytometer. The cell suspension was adjusted to an appropriate concentration with medium. […] After 10 minutes, the fluorescence signal value was measured with an Envision2104 plate reader. […]
(§4) Cell survival rate was calculated using the formula: Vsample/Vvehicle control×100%. Where, Vsample was the reading of the drug treatment group, and Vvehicle control was the average value of the solvent control group. GraphPad Prism 5.0 software was used, and a S-type dosage-survival rate curve was drawn using a nonlinear regression model and IC50 value was calculated.

[3] = tested on: RPMI2650 head and neck cancer cells; assay: CTG cell proliferation IC50, RPMI 2650; assay type: cell-based; conditions: 72 hours, read-out: Absolute IC50
Description: as §1, §2, §3, §4

[4] = tested on: KYSE-150 esophageal cancer cells; assay: CTG cell proliferation IC50, KYSE-150; assay type: cell-based; conditions: KYSE-150 cells, read-out: Absolute IC50
Description: as §1, §2
(§5) • Step 1: Cells in exponential growth phase were harvested, and viable cells were counted with a Vi-Cell XR cytometer. The cell suspension was adjusted to an appropriate concentration with medium. 90 μL of cell suspension was added to each well of a 96-well cell culture plate, and the final cell concentration was 1500-6000 cells/well. • Step 2: The initial concentration of administration of compound I is 3 μM, and the initial concentration of administration of the control drug Alpelisib and Cisplatin was 10 μM, serially diluted 3-fold, a total of 9 concentration gradients and a DMSO control, the final concentration of DMSO in each well was 0.1%, placed in a 37° C., 5% CO2 incubator for 72 hours. • Step 3: After 72 hours of drug treatment, 50 μL (½ culture volume) CTG solution that was melted and equilibrated to room temperature was added to each well according to the CTG operation instructions. […] After 10 minutes, the fluorescence signal value was measured with an Envision2104 plate reader. […]
as §4

[5] = tested on: TE-1 esophageal cancer cells; assay: CTG cell proliferation IC50, TE-1; assay type: cell-based; conditions: TE-1 cells, read-out: Absolute IC50
Description: as §1, §2, §5, §4

[6] = 20 mg/kg, vein, once a week, day 28
[7] = 5 mg/kg, oral, once a day for 28 days

CN(C)C1CCN(C(=O)c2ccc(NC(=O)Nc3ccc(-c4nc(N5CCOCC5)nc(N5CCOCC5)n4)cc3)cc2)CC1 [PF05212384, reference compound]
T/C [1, 6]: 68% | TGI [1, 6]: 44% | Tumor volume (Day 28) [1, 6]: 971 ± 249 mm^3

CO[C@H]1C[C@@H]2CC[C@@H](C)[C@@](O)(O2)C(=O)C(=O)N2CCCC[C@H]2C(=O)O[C@H]([C@H](C)C[C@@H]2CC[C@@H](OCCO)[C@H](OC)C2)CC(=O)[C@H](C)/C=C(\C)[C@@H](O)[C@@H](OC)C(=O)[C@H](C)C[C@H](C)/C=C/C=C/C=C/1C [Everolimus, reference compound]
T/C [1, 7]: 42% | TGI [1, 7]: 60% | Tumor volume (Day 28) [1, 7]: 739 ± 206 mm^3

N.N.[Cl][Pt][Cl] [Cisplatin, reference compound]
IC50 [2]: 4.37 µM | IC50 [3]: 4.25 µM

Cc1nc(NC(=O)N2CCC[C@H]2C(N)=O)sc1-c1ccnc(C(C)(C)C(F)(F)F)c1 [Alpelisib, reference compound]
IC50 ([4]; Homo sapiens, KYSE-150, 72 h): > 2000 nM | IC50 ([4]; 72 hours): 2110 nM | IC50 ([5]; Homo sapiens, TE-1, 72 h): > 2000 nM | IC50 ([5]; 72 hours): > 3000 nM
